Experimental data taken from patent publication US20250179057A1, “MEK IMMUNE ONCOLOGY INHIBITORS AND THERAPEUTIC USES THEREOF” (Immuneering Corporation, priority 2022, published 2025).
pIC50: −log10 of the molar value.

Experiments:
[1] = system: phospho-ERK in A549 (KRAS G12S) cells; test: Cell-based pERK (pERK:tERK) in A549 cells
How it was run: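 Readout was pERK versus tERK by Western blot with IRDye-labelled secondary antibodies, imaged and quantified on a LI-COR Odyssey. Lysates were loaded at 1 mg/mL protein after Bradford estimation.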

[2] = system: phospho-MEK in A549 cells; test: Cell-based pMEK (pMEK:tMEK, CRAF bypass) in A549 cells; settings: 2 h, pMEK to total MEK normalized to DMSO control
How it was run: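 Cells (A549 or A375) exposed 2 h to compounds at varying concentrations in duplicate, then lysed; lysates set to 1.5 mg/mL for pMEK by quantitative Western (Jess). Phospho-MEK/total MEK ratio normalized to DMSO control.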

[3] = Kinetic solubility (PBS pH 7.4; 4 hr); assay type: physicochemical; settings: PBS pH = 7.4; 4 hr (Table 8)
Procedure: The plates were shaken for 4 h at room temperature in an Eppendorf Thermomixer. After incubation, the plates were centrifuged for 20 minutes at 4680 rpm. From the supernatant, 150 μL was transferred to a new 96 well plate and 50 μL DMSO was added to ensure continued dissolution. Samples were measured on LC-UV at injection volumes of 1 and 8 μL. Peak areas were determined and compared to peak areas obtained using calibration curves of the test compounds in DMSO.

[4] = eLogD (lipophilicity; pH 7.4) by HPLC; assay type: physicochemical
Procedure: Test compounds were dissolved in DMSO at a concentration of 10 mM and further diluted with methanol:water 1:1. Samples were analyzed using gradient HPLC with three different isocratic mobile phases of 0.25% octanol in methanol (60, 65 and 70%) and 20 mM MOPS buffer (pH 7.4) with decylamine. If needed, (for low E log Doct compounds) the isocratic mobile phases were adjusted to e.g. 40, 45 and 50% methanol. Peaks were detected using a diode array at absorbance 220-320 nm.
Capacity factors data (k′_=(tr−_t0)/t0) obtained at various amounts of methanol were extrapolated to 0% methanol and k′w values are determined using a linear procedure. E log Doct (7.4) is calculated using a series of reference standards with known Log D values. Each experiment was performed in triplicate.

PAMPA (pH 7.4) = assay type: in vitro ADME; settings: pH = 7.4
Procedure: Each stock solution was diluted to 50 M in pH 7.4 Prisma HT buffer (pION) and 200 μl was added to each well of the donor plate in triplicate. The polyvinylidene fluoride (PVDF, 0.45 μm) filter membrane on the acceptor plate was coated with 5 μl gastrointestinal tract lipid formulation (GIT-0, pION) and to each well of the acceptor plate, 200 μl of acceptor sink buffer (pION) was added. The acceptor filter plate was then carefully placed on top of the donor plate to form a sandwich. The sandwich was incubated at 25° C. for 4 h without stirring. UV-vis spectra of the solutions in the blank, reference, acceptor and donor plates were measured using a microplate reader (Tecan Infinite 200PRO M Nano Plus). Permeability values were calculated using the PAMPA explorer software v.

[5] = Mouse liver microsome stability (t1/2, Clint); settings: 1 μM; 0.5 mg/ml microsomal protein
[6] = Human liver microsome stability (t1/2, Clint); settings: 1 μM; 0.5 mg/ml microsomal protein
[7] = Plasma stability, human plasma (K2EDTA); assay type: in vitro ADME; settings: human, pH 7.4
Procedure: (§1) Individual stock solutions of propantheline and lovastatin were prepared at 10 mM in DMSO and were further diluted to 2 mM with DMSO.
(§2) Frozen matrices (Balb/c mouse, Wistar Han rat, Beagle dog, and human plasma containing K2EDTA as anti-coagulant) were thawed and centrifuged at 3100 rpm for 10 minutes at 4° C. to remove particulates. The lipid layer was then removed, and the supernatant was transferred to a new tube without disturbing the pellet. After the matrices were incubated at 37° C. for at least 10 minutes, the pH of each matrix was adjusted to pH 7.4, using 10% phosphoric acid or 1N sodium hydroxide as necessary. Test and control article stock solutions were spiked (2 μL) into matrix (1.998 mL) and mixed to final assay concentration of […]. Duplicate 30-μL aliquots of spiked plasma were transferred to matrix tubes in 96-well plate immediately after spiking for timepoints of 0, 30, 60, 120, 240, and 360 minutes. These tubes were then incubated at 37° C. with shaking and at each timepoint, the corresponding tubes containing samples were quenched with 180 μL of cold acetonitrile containing the internal standards. The quenched samples were vortex-mixed briefly and stored refrigerated. After the final time point (360 minutes), the plates with all quenched samples were vortex-mixed for 10 minutes and then centrifuged at 3100 rpm for 10 minutes at 4° C. to sediment the precipitated protein. The supernatant (50 μL) was transferred to a clean 96-well plate and diluted with 100 μL of water. The plates were stored refrigerated until analysis.
(§3) Data Analysis: Peak area ratios for IS-normalized test article and control article counts were used to calculate the percent remaining relative to the time zero (T0) value. As appropriate, results were plotted and further analyzed to calculate half-life (T1/2) values.
(§4) Mean peak area ratios were used to calculate the % remaining relative to the T0 value:
(§5) In this study, human, cynomolgus monkey, beagle dog, wistar hannover rat, and balb/c plasma stability was determined. Table 28 describes the results of the human plasma stability at 2 μM concentration and anti-coagulant K2-EDTA from 10 to 120 min. Table 29 describes the results of the cynomolgus monkey plasma stability at 2 μM concentration and anti-coagulant K2-EDTA. Table 30 describes the results of the beagle dog plasma stability at 2 μM concentration and anti-coagulant K2-EDTA. Table 31 describes the results of the wistar hannover rat plasma stability at 2 μM concentration and anti-coagulant K2-EDTA. Table 32 describes the results of the balb/c plasma stability at 2 μM concentration and anti-coagulant K2-EDTA.

[8] = Plasma stability, cynomolgus monkey plasma (K2-EDTA); assay type: in vitro ADME
Procedure: as §1, §2, §3, §4, §5

[9] = Plasma stability, beagle dog plasma (K2EDTA); assay type: in vitro ADME; settings: beagle, dog, pH 7.4
Procedure: as §1, §2, §3, §4, §5

[10] = Plasma stability, rat plasma (Wistar Han / wistar hannover; Table 5 head SD Rat); assay type: in vitro ADME; settings: Wistar Hannover, rat, plasma, pH 7.4
Procedure: as §1, §2, §3, §4, §5

[11] = Plasma stability, mouse plasma (Balb/c; Table 5 head CD-1 Mouse); assay type: in vitro ADME; settings: BALB/c, mouse, plasma, pH 7.4
Procedure: as §1, §2, §3, §4, §5

[12] = as above; assay type: in vitro ADME; settings: CD-1, mouse, 2 h, 2 μM, pH 7.4
[13] = Guo et al Lancet Oncol. 2020; cited from earlier work

## CNS(=O)(=O)Nc1cccc(Cc2c(CN3CCC3)c3cc(Cl)c(OC(=O)N(C)C)cc3oc2=O)c1F [Compound 19]
[1]; 10 nM, 2 h, phospho- to total protein ratio normalized to DMSO control (Table 9)
  A549-pERK (10 nM, 2 h): 59.9
[1]; A549, 12-point dose
  pIC50: 7.30 to 7.40
[2]
  A549-CRAF BP 100 nM, 2 h: 51.9
[3]
  Kinetic Solubility (PBS pH = 7.4; 4 hr): >80 uM
[4]
  eLogD (lipophilicity; pH = 7.4): 2.9
PAMPA (pH 7.4)
  PAMPA (pH = 7.4; Papp 10^−6 cm/s): 51 10^−6 cm/s
[5]
  Mouse Clint: 26 µL/min/mg
  Mouse Microsome (t1/2 min): 0.883 h
[6]
  Human Clint: 37 µL/min/mg
  Human Microsome (t1/2 min): 0.633 h

## CC(C)[N+](C)(CCOC(=O)C1c2ccccc2Oc2ccccc21)C(C)C [Propantheline, reference compound]
[7]; 2 h, 2 μM
  Human (% Reamining @2 hour): 5.7%
[7]; plasma, 2 h, 2 μM
  % Remaining at T120: 20.8%
[7]; plasma
  half-life at 2 μM: 0.943 h
[8]; 2 μM, anti-coagulant K2-EDTA, 120 min
  % Remaining at T120: 84.6%
[8]; plasma (K2EDTA), pH 7.4, anti-coagulant K2-EDTA
  half-life at 2 μM: 7.5 h
[9]; 2 h, 2 μM
  Beagle Dog (% Reamining @2 hour): 58.4%
[9]; plasma, 2 h, 2 μM
  % Remaining at T120: 71.0%
[9]; plasma
  half-life at 2 μM: 4.87 h
[10]; 2 h, 2 μM
  % Remaining at T120: 115.2%
[10]
  half-life at 2 μM: > 2 h
[11]; 2 h, 2 μM
  % Remaining at T120: 37.3%
[11]
  half-life at 2 μM: 1.68 h
[12]
  CD-1 Mouse (% Reamining @2 hour): 27.1%

## CNS(=O)(=O)Nc1nccc(Cc2c(C)c3ccc(Oc4ncccn4)cc3oc2=O)c1F [VS-6766]
[13]
  mean terminal half-life: 53.6 h
